Reference: patent publication US20080280837A1, “Biologically Active Compounds with Anti-Angiogenic Properties” (priority 2004, published 2008)

Molecular target: T1, Human SST5 somatostatin receptor (SSTR5) (Homo sapiens, UniProt P35346)
T1 construct: expressed in transfected cells; host or cells: HEK-293 EBNA
Experiment: Filter plate assay for SST5 receptor, displacement of [125I]SST-14
Format: binding
Description: Receptor membrane preparations containing the desired cloned receptor (for example cloned human somatostatin receptor subtype 5, SSTR5) and radio-labeled ligand (for example 3-[^125I]iodotyrosyl^11 Somatostatin-14)) were diluted at the concentration required for testing and according to the specific parameters associated with the selected receptor-ligand combination, including receptor Bmax, ligand Kd and any other parameters necessary to optimize the experimental conditions. When tested for competition activity to the reference ligand, “compound 1” was mixed with membrane suspension and the radiolabeled reference ligand (with or without an excess of cold ligand to the receptor for determination of non-specific binding) and incubated at the temperature required by internal standard operating procedures. Following incubation, the binding reaction was stopped by the addition of ice-cold washing buffer and filtered on appropriate filters, which are then counted. Data analysis and curve-fitting was performed with XLfit (IDBS).
10 mM solutions of test compounds in 100% DMSO were prepared. ˜160 μl was used for each dilution (20 μl/well in triplicate).
A 1.25 mM assay stock was prepared by making a 1:8 dilution of the 10 mM solution. (To 30 μL of the 10 mM solution was added 210 μL milli-Q H2O. A 1:5 dilution series in milli-Q H2O was then prepared.
Assays were performed in triplicate at each concentration within the 1:5 dilution series: 250 μM, 50 μM, 10 μM, […], 0.4 μM, 0.08 μM, 0.016 μM, 0.0032 μM, etc. (for SST4 assay) and 125 μM, 10 μM, 2 μM, 1 μM, 0.5 μM, etc (for SST5 assay).
Human SST5 somatostatin receptor was transfected into HEK-293 EBNA cells. Membranes were suspended in assay buffer (50 mM Tris-HCl, 1 mM EGTA, 5 mM MgCl2, 10% sucrose, pH 7.5).
After thawing the frozen receptor preparation rapidly, receptors were diluted with binding buffer, homogenized, and kept on ice. • 1. Use Multiscreen glass fiber filter plates (Millipore, Cat No MAFCNOB10) precoated with o.5% PEI for ˜2 hr at 4° C. Before use add 200 μl/well assay buffer and filter using Multiscreen Separation System. • 2. Incubate 5.5 μg of membranes (40 μl of a 1:40 dilution), buffer and [^125I]SST-14 (4 nM, ˜80 000 cpm, 2000 Ci/mmol) in a total volume of 200 μl for 60 min at 25° C. […] Prepare serial dilutions (1:5) of compounds, as described above and instead of adding SST-14 in well, add 20 μl of compounds (Table 1). • 3. Filter using Multiscreen Separation System with 5×0.2 ml ice-cold Assay buffer. • 4. Remove the plastic underdrain and dry plate in oven for 1 hr at 40° C. • 5. Seal tape to the bottom of the plate. • 6. Add 50 μl/well scintillant (Supermix, Wallac, Cat No 1200-439). • 7. Seal and count in the BJET, program 2.
In primary screening experiments compounds were tested in duplicate for a particular concentration.

T1 sequence (P35346 whole entry): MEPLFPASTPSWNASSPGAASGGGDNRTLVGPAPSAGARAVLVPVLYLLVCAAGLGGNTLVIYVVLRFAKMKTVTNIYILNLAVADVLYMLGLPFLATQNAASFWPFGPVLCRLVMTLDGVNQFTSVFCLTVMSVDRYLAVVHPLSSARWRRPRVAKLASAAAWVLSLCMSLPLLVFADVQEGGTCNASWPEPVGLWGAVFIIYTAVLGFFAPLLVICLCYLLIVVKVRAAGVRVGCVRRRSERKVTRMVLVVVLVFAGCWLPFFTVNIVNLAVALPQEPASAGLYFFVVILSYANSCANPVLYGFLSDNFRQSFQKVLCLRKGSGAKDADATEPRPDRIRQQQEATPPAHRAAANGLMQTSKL

SMILES | SSTR5 Inhib 0.5 uM % (inhibition of binding of SST-14 to SSTR5) [%] | SSTR5 Inhib 10 uM % (inhibition of binding of SST-14 to SSTR5) [%]
CSC1O[C@H](COCc2ccc(Cl)cc2)[C@@H](O)[C@@H](OCc2ccc(-c3ccccc3)cc2)[C@H]1NC(=O)CNC(=N)N (some centres unmarked) [Compound 111] | 36 | 83
CSC1O[C@H](COCc2ccc3ccccc3c2)[C@@H](O)[C@@H](OCc2ccc(-c3ccccc3)cc2)[C@H]1NC(=O)CN (some centres unmarked) [Compound 97] | 41 | 85
CO[C@H]1[C@H](O)[C@@H](COCc2ccc(-c3ccccc3)cc2)OC(OCc2ccc(-c3ccccc3)cc2)[C@@H]1NC(=O)CCCNC(=N)N (some centres unmarked) [Compound 157] | 20 | 75
COC[C@H]1OC(OCCc2ccccc2)[C@H](NC(=O)CCCN)[C@@H](OCc2cccc(O)c2)[C@@H]1O (some centres unmarked) [Compound 147] | 40 | 77
COC[C@H]1OC(OCc2ccc(-c3ccccc3)cc2)[C@H](NC(=O)CCCN)[C@@H](OCc2ccc(-c3ccccc3)cc2)[C@@H]1O (some centres unmarked) [Compound 31] | 85 | 96
CSC1O[C@H](COCc2ccccc2)[C@@H](O)[C@@H](OCc2ccc(-c3ccccc3)cc2)[C@H]1NC(=O)CCCN (some centres unmarked) [Compound 94] | 45 | 86
COC[C@H]1OC(OCc2ccc3ccccc3c2)[C@H](NC(=O)CCNC(=N)N)[C@@H](OCc2ccc(-c3ccccc3)cc2)[C@@H]1O (some centres unmarked) [Compound 86] | 58 | 87
CSC1O[C@H](COCc2ccccc2)[C@@H](O)[C@@H](OCc2ccc3ccccc3c2)[C@H]1NC(=O)CCN (some centres unmarked) [Compound 109] | 44 | 83
COC[C@H]1OC(OCCc2ccccc2)[C@H](NC(=O)CCN)[C@H](OCc2ccccc2)[C@@H]1O (some centres unmarked) [Compound 106] | 53 | 83
COC[C@H]1OC(OCCc2ccccc2)[C@H](NC(=O)CCCN)[C@@H](OCc2ccc3ccccc3c2)[C@@H]1O (some centres unmarked) [Compound 73] | 56 | 89
COC[C@H]1OC(OCc2ccc(-c3ccccc3)cc2)[C@H](NC(=O)CCCNC(=N)N)[C@@H](OCc2ccc(-c3ccccc3)cc2)[C@@H]1O (some centres unmarked) [Compound 77] | 50 | 88
COC1C(O)C(COCc2ccc(Cl)cc2)OC(OCc2ccc3ccccc3c2)C1NC(=O)CCCNC(=N)N (centres unmarked) [Compound 134] | 55 | 79
COC[C@H]1OC(OCCc2ccccc2)[C@H](NC(=O)CCCNC(=N)N)[C@@H](OCc2ccc(Cl)cc2)[C@@H]1O (some centres unmarked) [Compound 98] | 55 | 84
COC[C@H]1OC(OCc2ccc(Cl)cc2)[C@H](NC(=O)CCNC(=N)N)[C@@H](OCc2ccc(-c3ccccc3)cc2)[C@@H]1O (some centres unmarked) [Compound 101] | 50 | 84
COC1C(O)C(COCc2ccc3ccccc3c2)OC(OCc2ccc(Cl)cc2)C1NC(=O)C1CCN(C(=N)N)CC1 (centres unmarked) [Compound 79] | 55 | 88
COC[C@H]1OC(OCc2ccc3ccccc3c2)[C@H](NC(=O)CCCN)[C@@H](OCc2ccccc2)[C@@H]1O (some centres unmarked) [Compound 68] | 46 | 89
CSC1O[C@H](COCc2ccccc2)[C@@H](O)[C@@H](OCc2ccc(Cl)cc2)[C@H]1NC(=O)CNC(=N)N (some centres unmarked) [Compound 45] | 71 | 93

SMILES | SSTR5 Inhib 0.5 uM % (inhibition of binding of SST-14 to SSTR5) [%] | SSTR5 Inhib 10 uM % (inhibition of binding of SST-14 to SSTR5) [%]
COC[C@H]1OC(OCc2ccccc2)[C@H](NC(=O)CCNC(=N)N)[C@H](OCc2ccc(Cl)cc2)[C@@H]1O (some centres unmarked) [Compound 102] | 42 | 84
COC[C@H]1OC(OCc2ccc3ccccc3c2)[C@H](NC(=O)CCCN)[C@@H](OCc2ccc(Cl)cc2)[C@@H]1O (some centres unmarked) [Compound 47] | 68 | 93
COC[C@H]1OC(OCc2ccc(Cl)cc2)[C@H](NC(=O)CCCNC(=N)N)[C@@H](OCc2ccc3ccccc3c2)[C@@H]1O (some centres unmarked) [Compound 160] | 40 | 74
CSC1O[C@H](COCc2ccc3ccccc3c2)[C@@H](O)[C@@H](OCc2ccc3ccccc3c2)[C@H]1NC(=O)CCNC(=N)N (some centres unmarked) [Compound 114] | 47 | 82
COC[C@H]1OC(OCc2ccccc2)[C@H](NC(=O)CCN)[C@H](OCc2ccc3ccccc3c2)[C@@H]1O (some centres unmarked) [Compound 37] | 81 | 95
COC1C(O)C(COCc2ccc3ccccc3c2)OC(OCc2ccc3ccccc3c2)C1NC(=O)CCNC(=N)N (centres unmarked) [Compound 115] | 50 | 82
COC[C@H]1OC(OCc2ccc3ccccc3c2)[C@H](NC(=O)CCCN)[C@@H](OCc2ccc(Cl)cc2)[C@@H]1O (some centres unmarked) [Compound 61] | 61 | 90
COC[C@H]1OC(OCc2ccc(Cl)cc2)[C@H](NC(=O)CCNC(=N)N)[C@H](OCc2ccc3ccccc3c2)[C@@H]1O (some centres unmarked) [Compound 50] | 74 | 92
COC[C@H]1OC(OCc2ccc3ccccc3c2)[C@H](NC(=O)CNC(=N)N)[C@@H](OCc2ccc(-c3ccccc3)cc2)[C@@H]1O (some centres unmarked) [Compound 88] | 63 | 86
CSC1O[C@H](COCc2ccc(Cl)cc2)[C@@H](O)[C@@H](OCc2ccc3ccccc3c2)[C@H]1NC(=O)CNC(=N)N (some centres unmarked) [Compound 150] | 42 | 76
COC[C@H]1OC(OCc2ccc3ccccc3c2)[C@H](NC(=O)CCCN)[C@H](OCc2ccc(Cl)cc2)[C@@H]1O (some centres unmarked) [Compound 20] | 76 | 97
COC[C@H]1OC(OCc2ccc3ccccc3c2)[C@H](NC(=O)CCCNC(=N)N)[C@@H](OCc2ccccc2)[C@@H]1O (some centres unmarked) [Compound 135] | 45 | 79
COC[C@H]1OC(OCc2ccc(-c3ccccc3)cc2)[C@H](NC(=O)CCCN)[C@@H](OCc2ccc(Cl)cc2)[C@@H]1O (some centres unmarked) [Compound 63] | 50 | 90
COC[C@H]1OC(OCc2ccc(Cl)cc2)[C@H](NC(=O)CCCNC(=N)N)[C@H](OCc2ccccc2)[C@@H]1O (some centres unmarked) [Compound 176] | 37 | 71
COC[C@H]1OC(OCc2ccc(-c3ccccc3)cc2)[C@H](NC(=O)CNC(=N)N)[C@@H](OCc2ccc(-c3ccccc3)cc2)[C@@H]1O (some centres unmarked) [Compound 129] | 36 | 80
COC[C@H]1OC(OCc2ccc(Cl)cc2)[C@H](NC(=O)CCCN)[C@H](OCc2ccc(-c3ccccc3)cc2)[C@@H]1O (some centres unmarked) [Compound 27] | 74 | 96
COC[C@H]1OC(OCc2ccccc2)[C@H](NC(=O)CCN)[C@H](OCc2ccc(-c3ccccc3)cc2)[C@@H]1O (some centres unmarked) [Compound 54] | 60 | 91
